Data as given in paper PMC6685951, “Migration of Bacteriocins Across Gastrointestinal Epithelial and Vascular Endothelial Cells, as Determined Using In Vitro Simulations” (Scientific Reports, 2019).
Converted amounts (≈) assume the structure as drawn. Where a SMILES comes first, the peptide text is derived from it. Bridges are numbered along the chain shown (N, C = ends).

Experiments:
L. monocytogenes EGDe = type: cell-based, Listeria monocytogenes; settings: microtiter plate, Listeria enrichment broth, 37 °C, OD600; lowest concentration inhibiting growth after 18 h
Protocol: The BCA assay was used according to the manufactures instructions to determine the concentration of the peptides. The MIC of the peptides was determined using a microtiter plate. Briefly, L. monocytogenes EGDe was inoculated into Listeria enrichment broth (LEB) and incubated overnight at 37 °C. The culture was inoculated into fresh LEB and incubated until an OD600 of 0.1 was reached. A series of peptide concentrations was prepared and 50 µL of each added per well, followed by the addition of 150 µL culture. The controls were ddH2O containing 0.1% (v/v) TFA with 150 µL culture or media. Microtiter plates were incubated at 37 °C and OD600 readings were taken at T0, T5 and T18 (hours). The MIC was determined as the lowest peptide concentration required to inhibit the growth of L. monocytogenes EGDe after 18 h.

Caco-2 cells [1] = experiment: XTT viability assay, Caco-2; type: cell-based, human; settings: 24 h, 37 °C
Protocol: (§1) For viability and cytotoxicity studies, cells were seeded in 96-well flat-bottom culture plates (1 × 10^4 cells/well). To determine migration of nisin A, plantaricin 423 and bacST4SA across the gastrointestinal epithelial and vascular endothelial barriers, HUVEC and Caco-2 cells were grown on an 8 µm pore size tissue culture insert, as shown in Fig. 1. All cell culture experiments were done in triplicate and have been repeated more than three times.
(§2) Cells were grown in 100 µL of culture medium for 24 h at 37 °C. The bacteriocins were separately added to the cells at concentrations of 25 µM, 50 µM and 100 µM. Sterile ultrapure water was used as control. After 24 h of incubation at 37 °C, the reaction mixture containing PMS (N-methyl-dibenzopyrazine-methylsulfate/phenazine methosulphate) and XTT solution, was added to each well and incubated for 4 h at 37 °C. Absorbance readings were recorded at 450 nm, using a microtiter plate reader. The percentage viability was calculated as AT/AC × 100; where AT is the absorbance of peptide-treated cells and AC is the absorbance of control (untreated cells).

HUVEC [2] = experiment: XTT viability assay, HUVEC; type: cell-based, human; settings: 24 h, 37 °C
Protocol: as §1, §2

Caco-2 cells [3] = experiment: Neutral red viability assay, Caco-2; type: cell-based, human; settings: 24 h, 37 °C
Protocol: as §1
Cells were treated with different concentrations of the peptides as described for the XTT assay. Sterile ultrapure water was used as control. After incubation at 37 °C for 24 h, neutral red solution was added to the cells (10% of the culture volume). After 4 h of incubation at 37 °C, the medium was removed by aspiration and the cells were rinsed with neutral red fixative. The fixative was removed, the dye solubilized by adding […] and the cells were gently stirred for 10 min on a gyratory shaker. Absorbance readings were recorded at 540 nm and 690 nm, respectively, using a microtiter plate reader. The percentage viability was calculated as the absorbance of treated cells divided by the absorbance of untreated cells (AT/AC × 100).

HUVEC [4] = experiment: LDH release assay, HUVEC; type: cell-based, human; settings: 24 h
Protocol: as §1
HUVEC and Caco-2 cells were exposed to three different concentrations (25 µM, 50 µM and 100 µM) nisin A, plantaricin 423 and bacST4SA and the presence of extracellular LDH determined using the LDH release assay kit. Sterile ultrapure water was used as negative control (referred to as spontaneous LDH activity) and lysis buffer (10X) was used as positive control (referred to as maximum LDH activity). After incubating the cultures in the presence of the peptides for 24 h at 37 °C, culture supernatants were pipetted into a 96-well plate. Reaction mixture was added to the supernatants and plates were incubated at 25 °C for 30 min. Absorbance was measured at 490 nm and 680 nm, respectively. The percentage cytotoxicity was calculated as follows (1):1 %Cytotoxicity=(Compound−treatedLDHactivity)−(SpontaneousLDHactivity)/MaximumLDHactivity−SpontaneousLDHactivity×100

HUVEC monolayer = experiment: Migration across HUVEC monolayer on transmigration inserts; type: in vitro ADME, human; settings: 3 h
Protocol: as §1
HUVECs and Caco-2 cells were seeded onto transmigration inserts (Fig. 1) at a cell density of 1 × 10^5 cells/insert (200 µL). Inserts were carefully placed in a 24-well tissue culture plate containing 700 µL cell growth media. […] The integrity of the monolayers was monitored by ensuring trans-epithelial electrical resistance (TEER) readings remained above 300 Ω throughout the experiment (Millicell-ERS volt-ohm meter, Merck)[51],[52],[62]. […] Transmigration inserts containing no monolayer, was used to determine the total fluorescence. Samples were incubated for 3 h while absorbance was measured at 490 nm every 30 min using a microplate reader. Before each reading, inserts were removed and placed into new microplates containing fresh media. […]
The percentage of peptide that attached to, or entered the cells was quantified by subtracting the sum of migrated peptide (eq. 4) and retained peptide (eq. 5) from the total fluorescence. […]

## CC(C)C[C@@H]1NC(=O)[C@H](Cc2c[nH]cn2)NC(=O)[C@H](CO)NC(=O)[C@H](C(C)C)NC(=O)[C@H](CO)NC(=O)[C@@H](NC(=O)[C@H](CO)NC(=O)[C@H](Cc2ccccc2)NC(=O)[C@H](C)NC(=O)[C@H](CCC(N)=O)NC(=O)CNC(=O)[C@H](Cc2c[nH]c3ccccc23)NC(=O)[C@H](CC(N)=O)NC(=O)[C@@H](NC(=O)[C@H](CO)NC(=O)[C@@H]2CSSC[C@H](NC(=O)[C@@H](NC(=O)[C@@H](NC(=O)CNC(=O)[C@H](CC(N)=O)NC(=O)CNC(=O)[C@H](Cc3ccc(O)cc3)NC(=O)[C@H](Cc3ccc(O)cc3)NC(=O)[C@@H](N)CCCCN)C(C)C)[C@@H](C)O)C(=O)NCC(=O)N[C@@H](CCCCN)C(=O)N[C@@H](Cc3c[nH]cn3)C(=O)N[C@@H](CO)C(=O)N2)C(C)C)CSSC[C@@H](C(=O)O)NC(=O)[C@H](CCCCN)NC(=O)CNC(=O)[C@H](Cc2c[nH]cn2)NC(=O)CNC(=O)[C@H](Cc2ccccc2)NC(=O)[C@H](CC(N)=O)NC(=O)[C@H](C)NC1=O [plantaricin 423] (H-KYYGNGVTCGKHSCSVNWGQAFSCSVSHLANFGHGKC-OH; disulfide 9-14, 24-37; N-terminus and C-terminus assumed)
L. monocytogenes EGDe
  MIC: 12 µM (≈ 47.2 µg/mL)
Caco-2 cells [1]; Caco-2, 25 µM and 50 µM (up to 50 µM), absorbance 450 nm
  cell viability (XTT): did not cause significant decreases
Caco-2 cells [1]; Caco-2, 100 µM
  cell viability (XTT): slight reduction
HUVEC [2]; 25 µM and 50 µM (up to 50 µM), absorbance 450 nm
  cell viability (XTT): did not cause significant decreases
HUVEC [2]; 100 µM
  cell viability (XTT): slight reduction
Caco-2 cells [3]; Caco-2, 25 µM and 50 µM (up to 50 µM)
  cell viability (neutral red): did not cause significant decreases
Caco-2 cells [3]; Caco-2, 100 µM
  cell viability (neutral red): slight reduction
HUVEC [4]; 100 µM, 37 °C, percentage of maximum LDH release (lysis buffer = 100%)
  cytotoxicity level (LDH release): 21%
HUVEC [4]; concentrations up to 100 µM
  toxicity (LDH release): minimal toxicity
HUVEC monolayer; HUVEC monolayer on 8 µm pore insert, apical addition, NHS-fluorescein labelled peptide 50 µM, 37 °C, TEER above 300 Ω, read at 490 nm, % of no-monolayer control, triplicate
  migrated peptide: 93%
HUVEC monolayer; HUVEC, labelled peptide 50 µM, total fluorescence minus migrated and residual peptide
  percentage attached and/or entered peptide: 0%
